According to patent US10894798B2, “Substituted dihydropyrrolopyrazole derivative” (UBE INDUSTRIES, LTD., priority 2015, dated 2021):

Assays:
Format in all cases: cell-based
[1] = system: rhabdomyosarcoma cell line A-204; assay: Various human cancer cell growth inhibition test: A-204; settings: A204, ATPlite, read-out: GI50 value (concentration necessary for inhibiting 50% of cell growth)
Source text: (§1) A breast cancer cell line BT-549 (obtained from American Type Culture Collection (ATCC)), a uterus cancer cell line C-33A (obtained from ATCC), an ovary cancer cell line PA-1 (obtained from ATCC), a large-cell lung cancer cell line NCI-H460 (obtained from ATCC), a small-cell lung cancer cell line NCI-H82 (obtained from ATCC), a kidney cancer cell line ACHN (obtained from ATCC), a pancreatic cancer cell line BxPC-3 (obtained from ATCC), a malignant melanoma cell line A375 (obtained from ATCC), a throat cancer cell line FaDu (obtained from ATCC), a medulloblastoma cell line Daoy (obtained from ATCC), a cutaneous epithelioid sarcoma cell line VA-ES-BJ (obtained from ATCC), a rhabdomyosarcoma cell line A-204 (obtained from ATCC), a prostate cancer cell line DU145 (obtained from ATCC), a bladder cancer cell line T24 (obtained from ATCC), a lymphoma cell line SR (obtained from ATCC), a neuroblastoma cell line SH-SY5Y (obtained from DS Pharma Biomedical Co., Ltd.), a liver cancer cell line HepG2 (obtained from DS Pharma Biomedical Co., Ltd.), a stomach cancer cell line HGC-27 (obtained from DS Pharma Biomedical Co., Ltd.), and a multiple myeloma cell line NCI-H929 (obtained from DS Pharma Biomedical Co., Ltd.) were used as human cancer cell lines.
(§2) Each cell line was cultured in a cell culture medium recommended by ATCC or DS Pharma Biomedical Co., Ltd. and inoculated at 0.3 to 5.0×10^3 cells/well to a 96-well plate. The cells were cultured overnight in a carbon dioxide incubator of 37° C. containing 5% carbon dioxide. The medium was replaced with a fresh medium on the next day, then replaced with a mixed solution of a DMSO solution of a test compound with varying concentrations and a culture medium (final DMSO concentration: 0.1%), and left standing in a carbon dioxide incubator (day 0). IV-361, IV-379, IV-3, IV-215, IV-299, IV-669, IV-1049, and palbociclib (for comparison) were used as test compounds. For a control group, DMSO was added instead of the DMSO solution of the test compound to a cell culture medium (final DMSO concentration: 0.1%).
(§3) After culture for a predetermined period, the ATP activity of BT-549, C-33A, PA-1, NCI-H460, NCI-H82, ACHN, BxPC-3, A375, FaDu, Daoy, VA-ES-BJ, A-204, DU145, T24, and SR was measured by using ATPlite (manufactured by PerkinElmer, Inc.). The ATP activity of SH-SY5Y, HepG2, HGC-27, and NCI-H929 was measured by using CellTiter-Glo (manufactured by Promega Corp.).
(§4) The rate of inhibition of cell growth (%) was calculated according to the expression given below. Specifically, in the case where the difference between the ATP activity before culture (day 0) and the ATP activity after culture in the test compound-administered group is the same as the difference between the ATP activity before culture (day 0) and the ATP activity after culture in the control group, the rate of inhibition of cell growth is 0%. Rate of inhibition of cell growth=(1−((ATP activity of the test compound-administered group after culture)−(ATP activity of the test compound-administered group on day 0))/((ATP activity of the control group after culture)−(ATP activity of the control group on day 0)))×100
(§5) The concentration of the test compound necessary for inhibiting 50% of cell growth (GI50 value) was calculated by using EXSUS (version 8.1.0, manufactured by CAC Exicare Corp.).

[2] = system: stomach cancer cell line HGC-27; assay: Various human cancer cell growth inhibition test: HGC-27; settings: CellTiter-Glo, read-out: GI50 value (concentration necessary for inhibiting 50% of cell growth)
Source text: as §1, §2, §3, §4, §5

[3] = system: breast cancer cell line BT-549; assay: Various human cancer cell growth inhibition test: BT-549; settings: ATPlite, read-out: GI50 value (concentration necessary for inhibiting 50% of cell growth)
Source text: as §1, §2, §3, §4, §5

[4] = system: small-cell lung cancer cell line NCI-H82; assay: Various human cancer cell growth inhibition test: NCI-H82; settings: ATPlite, read-out: GI50 value (concentration necessary for inhibiting 50% of cell growth)
Source text: as §1, §2, §3, §4, §5

[5] = system: ovary cancer cell line PA-1; assay: Various human cancer cell growth inhibition test: PA-1; settings: ATPlite, read-out: GI50 value (concentration necessary for inhibiting 50% of cell growth)
Source text: as §1, §2, §3, §4, §5

[6] = system: malignant melanoma cell line A375; assay: Various human cancer cell growth inhibition test: A375; settings: A-375, ATPlite, read-out: GI50 value (concentration necessary for inhibiting 50% of cell growth)
Source text: as §1, §2, §3, §4, §5

[7] = system: bladder cancer cell line T24; assay: Various human cancer cell growth inhibition test: T24; settings: ATPlite, read-out: GI50 value (concentration necessary for inhibiting 50% of cell growth)
Source text: as §1, §2, §3, §4, §5

[8] = system: kidney cancer cell line ACHN; assay: Various human cancer cell growth inhibition test: ACHN; settings: ATPlite, read-out: GI50 value (concentration necessary for inhibiting 50% of cell growth)
Source text: as §1, §2, §3, §4, §5

[9] = system: uterus cancer cell line C-33A; assay: Various human cancer cell growth inhibition test: C-33A; settings: ATPlite, read-out: GI50 value (concentration necessary for inhibiting 50% of cell growth)
Source text: as §1, §2, §3, §4, §5

[10] = system: throat cancer cell line FaDu; assay: Various human cancer cell growth inhibition test: FaDu; settings: ATPlite, read-out: GI50 value (concentration necessary for inhibiting 50% of cell growth)
Source text: as §1, §2, §3, §4, §5

lymphoma cell line SR = assay: Various human cancer cell growth inhibition test: SR; settings: ATPlite, read-out: GI50 value (concentration necessary for inhibiting 50% of cell growth)
Source text: as §1, §2, §3, §4, §5

[11] = system: large-cell lung cancer cell line NCI-H460; assay: Various human cancer cell growth inhibition test: NCI-H460; settings: ATPlite, read-out: GI50 value (concentration necessary for inhibiting 50% of cell growth)
Source text: as §1, §2, §3, §4, §5

[12] = system: cutaneous epithelioid sarcoma cell line VA-ES-BJ; assay: Various human cancer cell growth inhibition test: VA-ES-BJ; settings: ATPlite, read-out: GI50 value (concentration necessary for inhibiting 50% of cell growth)
Source text: as §1, §2, §3, §4, §5

[13] = system: Human keratinocytes (NHEK-Neo Pooled); assay: Human keratinocyte growth inhibition assay; settings: 48 h, culture for 2 days, Cell Counting Kit-8
Protocol: The measurement of a human keratinocyte growth inhibitory effect was carried out by modifying the method of Schafer et al. (British Journal of Pharmacology, 159, 842 (2011)).
Human keratinocytes (NHEK-Neo Pooled, manufactured by Lonza Group AG) were cultured in KGM-Gold keratinocyte growth medium Bullet Kit (manufactured by Lonza Group AG) and inoculated at 2×10^3 cells/well to a 96-well plate. After overnight culture in a carbon dioxide incubator, a test compound dissolved in DMSO (final DMSO concentration: 0.1%) was added thereto and left standing in a carbon dioxide incubator. After culture for 2 days, the absorbance thereof was measured by using Cell Counting Kit-8 (manufactured by Dojindo Laboratories).
as §5, with “The rate of inhibition of cell growth at each concentration was calculated from the test compound concentration and the absorbance of Cell Counting Kit-8, and the” for “The”

| SMILES | GI50 [1] | GI50 [2] | GI50 [3] | GI50 [4] | GI50 [5] | GI50 [6] | GI50 [7] | GI50 [8] | GI50 [9] | GI50 [10] | GI50 (lymphoma cell line SR) | GI50 [11] | GI50 [12] | GI50 [13] |
| --- | --- | --- | --- | --- | --- | --- | --- | --- | --- | --- | --- | --- | --- | --- |
| CC1(C)c2[nH]nc(NC(=O)C3([Si](C)(C)C)CCC3)c2CN1C(=O)Nc1ccccc1F [IV-3, N-(2-Fluorophenyl)-6,6-dimethyl-3-[1-(trimethylsilyl)cyclobutanecarboxamido]-4,6-dihydropyrrolo[3,4-c]pyrazole-5(1H)-carboxamide] | < 300 nM | < 300 nM | < 300 nM | < 300 nM | < 300 nM | < 300 nM | < 300 nM | < 300 nM | < 300 nM | < 300 nM | < 300 nM | < 300 nM | < 300 nM | – |
| Cc1cccc(F)c1NC(=O)N1Cc2c(NC(=O)C3([Si](C)(C)C)CCC3)n[nH]c2C1(C)C [IV-129, N-(2-Fluoro-6-methylphenyl)-6,6-dimethyl-3-[1-(trimethylsilyl)cyclobutanecarboxamido]-4,6-dihydropyrrolo[3,4-c]pyrazole-5 (1H)-carboxamide] | – | – | – | – | – | – | – | – | – | – | – | – | – | ≤ 500 nM |
| Cc1cccc(Cl)c1NC(=O)N1Cc2c(NC(=O)C3([Si](C)(C)C)CCC3)n[nH]c2C1(C)C [IV-215, N-(2-Chloro-6-methylphenyl)-6,6-dimethyl-3-[1-(trimethylsilyl)cyclobutanecarboxamido]-4,6-dihydropyrrolo[3,4-c]pyrazole-5 (1H)-carboxamide] | < 300 nM | < 300 nM | < 300 nM | < 300 nM | < 300 nM | < 300 nM | < 300 nM | < 300 nM | < 300 nM | < 300 nM | < 300 nM | < 300 nM | < 300 nM | ≤ 500 nM |
| COc1cccc(Cl)c1NC(=O)N1Cc2c(NC(=O)C3([Si](C)(C)C)CCC3)n[nH]c2C1(C)C [IV-247, N-(2-Chloro-6-methoxyphenyl)-6,6-dimethyl-3-[1-(trimethylsilyl)cyclobutanecarboxamido]-4,6-dihydropyrrolo[3,4-c]pyrazole-5(1H)-carboxamide] | – | – | – | – | – | – | – | – | – | – | – | – | – | ≤ 500 nM |
| Cc1cccc(Br)c1NC(=O)N1Cc2c(NC(=O)C3([Si](C)(C)C)CCC3)n[nH]c2C1(C)C [IV-299, N-(2-Bromo-6-methylphenyl)-6,6-dimethyl-3-[1-(trimethylsilyl)cyclobutanecarboxamido]-4,6-dihydropyrrolo[3,4-c]pyrazole-5 (1H)-carboxamide] | < 300 nM | < 300 nM | < 300 nM | < 300 nM | < 300 nM | < 300 nM | < 300 nM | < 300 nM | < 300 nM | < 300 nM | < 300 nM | < 300 nM | < 300 nM | – |
| Cc1ccc(F)cc1NC(=O)N1Cc2c(NC(=O)C3([Si](C)(C)C)CCC3)n[nH]c2C1(C)C [IV-361, N-(5-Fluoro-2-methylphenyl)-6,6-dimethyl-3-[1-(trimethylsilyl)cyclobutanecarboxamido]-4,6-dihydropyrrolo[3,4-c]pyrazole-5 (1H)-carboxamide] | < 300 nM | < 300 nM | < 300 nM | < 300 nM | < 300 nM | < 300 nM | < 300 nM | < 300 nM | < 300 nM | < 300 nM | < 300 nM | < 300 nM | < 300 nM | ≤ 500 nM |
| Cc1ccc(C)c(NC(=O)N2Cc3c(NC(=O)C4([Si](C)(C)C)CCC4)n[nH]c3C2(C)C)c1 [IV-379, N-(2,5-Dimethylphenyl)-6,6-dimethyl-3-[1-(trimethylsilyl)cyclobutanecarboxamido]-4,6-dihydropyrrolo[3,4-c]pyrazole-5(1H)-carboxamide] | < 300 nM | < 300 nM | < 300 nM | < 300 nM | < 300 nM | < 300 nM | < 300 nM | < 300 nM | < 300 nM | < 300 nM | < 300 nM | < 300 nM | < 300 nM | ≤ 500 nM |
| Cc1ccc(C)c(NC(=O)N2Cc3c(NC(=O)C4([Si](C)(C)C)CCC4)n[nH]c3C2(C)C)c1F [IV-669, N-(2-Fluoro-3,6-dimethylphenyl)-6,6-dimethyl-3-[1-(trimethylsilyl)cyclobutanecarboxamido]-4,6-dihydropyrrolo[3,4-c]pyrazole-5(1H)-carboxamide] | < 300 nM | < 300 nM | < 300 nM | < 300 nM | < 300 nM | < 300 nM | < 300 nM | < 300 nM | < 300 nM | < 300 nM | < 300 nM | < 300 nM | < 300 nM | – |
| CC1(C)c2[nH]nc(NC(=O)C3([Si](C)(C)C)CCC3)c2CN1C(=O)Nc1c(F)ccc2ccoc12 [IV-1049, N-(6-Fluorobenzofuran-7-yl)-6,6-dimethyl-3-[1-(trimethylsilyl)cyclobutanecarboxamido]-4,6-dihydropyrrolo[3,4-c]pyrazole-5 (1H)-carboxamide] | < 300 nM | < 300 nM | < 300 nM | < 300 nM | < 300 nM | < 300 nM | < 300 nM | < 300 nM | < 300 nM | < 300 nM | < 300 nM | < 300 nM | < 300 nM | – |
